# What was measured:
# [1] = target: full-length recombinant human NEK7 (Homo sapiens (Human), UniProt Q8TDX7); experiment: NEK7 Enzymatic Assay; assay type: biochemical; conditions: casein substrate, [33P]-ATP, 2 hours at room temperature
# Procedure, shortened: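 GST-tagged full-length human NEK7 (Sf9-expressed) with 1 mg/mL casein in HEPES pH 7.5/MgCl2 buffer, 1% DMSO; compounds 10 μM–0.5 nM preincubated 20 min at RT. Reaction started with [^33P]-ATP, 2 h at RT, P81 filter radioactivity read; IC50 from % activity remaining versus vehicle.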
# IL-1β release = experiment: IL-1β Release Assay; assay type: cell-based; conditions: Homo sapiens; PMA-treated THP-1 cells, 250 ng/mL LPS then 20 μM nigericin; cleaved IL-1β in media
# Method: Approximately 1.5 million THP-1 cells were plated in each well of a 6-well TC plate and incubated with 40 nM PMA in RPMI (10% FBS, 1% Penstrep) for 24 hours. The media was then removed, and cells were rested in RPMI (10% FBS, 1% Penstrep) for 24 hours after which time the media was removed and cells were pre-treated for 2 hours with various concentrations of compounds of interest (typically serial 3-fold dilution in RPMI+5% FBS, concentrations ranging from 1 μM to 0.5 nM) in RPMI (5% FBS). The media was again removed, and cells were incubated with 250 ng/mL LPS and compounds of interest (concentrations as above) in RMPI (5% FBS) for 2 hours. The media was removed for a last time and cells were incubated with 20 μM nigericin and compounds of interest (concentrations as above) in Opti-MEM for 30 minutes. Cell media was then collected and the amount of cleaved IL-1β was determined using a JESS instrument (Protein Simple) and standard protocols. Cleaved Il-1β antibody was obtained from Cell Signaling (catalogue #83186S) and was used at 1:20 dilution in antibody diluent 2. Protein Simple 1× anti-Rabbit HRP secondary antibody was used along with Protein Simple luminol and peroxide for chemiluminescent detection. Primary antibody incubation time was increased from 30 minutes to 60 minutes.
# full-length recombinant human NEK7, sequence (Q8TDX7 whole entry): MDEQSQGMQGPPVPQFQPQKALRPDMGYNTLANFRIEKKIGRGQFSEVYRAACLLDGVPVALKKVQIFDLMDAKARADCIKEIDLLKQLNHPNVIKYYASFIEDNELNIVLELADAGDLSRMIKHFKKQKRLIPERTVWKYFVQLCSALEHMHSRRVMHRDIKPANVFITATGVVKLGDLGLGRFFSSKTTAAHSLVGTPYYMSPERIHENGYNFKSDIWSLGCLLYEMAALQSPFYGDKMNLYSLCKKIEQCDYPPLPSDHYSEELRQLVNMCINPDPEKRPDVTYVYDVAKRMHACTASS
SMILES,IC50 [1] [nM],IC50 (IL-1β release) [nM]
"CN1CCN(Cc2ccc(NC(=O)Nc3ccc(-c4nn(C5CC5)c5ncnc(N)c45)n4ccnc34)cc2C(F)(F)F)CC1 [Example I-98, 1-(5-(4-amino-1-cyclopropyl-1H-pyrazolo[3,4-d]pyrimidin-3-yl)imidazo[1,2-a]pyridin-8-yl)-3-(4-((4-methylpiperazin-1-yl)methyl)-3-(trifluorometh-yl)phenyl)urea]",< 200,< 100
"CC(C)(C)c1cc(NC(=O)Nc2ccc(-c3cn(C4CC4)c4ncnc(N)c34)n3ccnc23)on1 [Example I-17, 1-(5-(4-amino-7-cyclopropyl-7H-pyrrolo[2,3-d]pyrimidin-5-yl)imidazo[1,2-a]pyridin-8-yl)-3-(3-(tert-butyl)isoxazol-5-yl)urea]",< 200,< 100
